Laboratory results reported in PubChem BioAssay (NCI).
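48-hour exposure; five concentrations; linearly interpolated endpoints. GI50: concentration for 50% inhibition of growth. TGI marks complete inhibition of growth.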

Experiments:
Assay in all cases: NCI tumour cell line growth inhibition, 48 h
[1] = system: NCI-H226 lung
[2] = system: OVCAR-3 ovarian
[3] = system: KM12 colon
[4] = system: LOX IMVI melanoma
[5] = system: HT29 colon
[6] = system: MCF7 breast
[7] = system: NCI-H23 lung
[8] = system: RXF 393 renal
[9] = system: SW-620 colon
[10] = system: SNB-75 CNS
[11] = system: MALME-3M melanoma
[12] = system: OVCAR-5 ovarian
[13] = system: NCI-H460 lung
[14] = system: SK-MEL-28 melanoma
[15] = system: SF-539 CNS
[16] = system: BT-549 breast
[17] = system: HCT-116 colon
[18] = system: CCRF-CEM leukemia
[19] = system: SF-295 CNS
[20] = system: SK-MEL-5 melanoma
[21] = system: MOLT-4 leukemia
[22] = system: UACC-62 melanoma
[23] = system: A549 NSCLC
[24] = system: HOP-92 NSCLC
[25] = system: DU-145 prostate
[26] = system: NCI-H522 lung
[27] = system: RPMI-8226 leukemia
[28] = system: SK-OV-3 ovarian
[29] = system: SN12C renal
[30] = system: SK-MEL-2 melanoma
[31] = system: OVCAR-4 ovarian
[32] = system: IGROV1 ovarian
[33] = system: HCT-15 colon
[34] = system: HS 578T breast
[35] = system: PC-3 prostate
[36] = system: 786-0 renal
[37] = system: OVCAR-8 ovarian
[38] = system: HOP-62 NSCLC
[39] = system: EKVX NSCLC
[40] = system: T-47D breast
[41] = system: NCI/ADR-RES ovarian
[42] = system: U251 CNS
[43] = system: UACC-257 melanoma
[44] = system: HCC-2998 colon
[45] = system: ACHN renal
[46] = system: K-562 leukemia
[47] = system: M14 melanoma
[48] = system: CAKI-1 renal
[49] = system: HL-60(TB) leukemia
[50] = system: SNB-19 CNS
[51] = system: TK-10 renal
[52] = system: A498 renal
[53] = system: MDA-MB-231 breast
[54] = system: SR leukemia
[55] = system: UO-31 renal
[56] = system: SF-268 CNS

Compound `O=C(N/N=C/c1ccc(Br)s1)c1[nH]c2ccc(Br)cc2c1-c1ccccc1` has a GI50 [1] of 0.826 µM, a TGI [1] of over 37 µM and a GI50 [2] of 0.638 µM. The TGI [2] was 38.4 µM, the GI50 [3] was 1.18 µM and the TGI [3] was over 79.6 µM. It also gave a GI50 [4] of 0.312 µM, a TGI [4] of 1.35 µM and a GI50 [5] of 0.311 µM. The TGI [5] was over 35.8 µM, the GI50 [6] was 0.852 µM and the TGI [6] was over 34.5 µM. For the same compound, the GI50 [7] was 0.895 µM, the TGI [7] was over 51.7 µM and the GI50 [8] was 1.27 µM. For the same compound, the TGI [8] was 37.3 µM, the GI50 [9] was 0.418 µM and the TGI [9] was over 100 µM. For the same compound, the GI50 [10] was 0.843 µM, the TGI [10] was 7.95 µM and the GI50 [11] was 1.31 µM. For the same compound, the TGI [11] was over 68.1 µM, the GI50 [12] was 0.863 µM and the TGI [12] was over 86.1 µM. It also gave a GI50 [13] of 0.762 µM, a TGI [13] of 8.09 µM and a GI50 [14] of 1.72 µM. It also gave a TGI [14] of over 88 µM, a GI50 [15] of 0.292 µM and a TGI [15] of 1.15 µM. For the same compound, the GI50 [16] was 0.738 µM, the TGI [16] was 2.16 µM and the GI50 [17] was 0.282 µM. The TGI [17] was over 100 µM, the GI50 [18] was 0.37 µM and the TGI [18] was over 100 µM. The GI50 [19] was 0.907 µM, the TGI [19] was 11 µM and the GI50 [20] was 0.675 µM. The TGI [20] was 1.52 µM, the GI50 [21] was 0.203 µM and the TGI [21] was 38.9 µM. The GI50 [22] was 1.03 µM, the TGI [22] was over 46.1 µM and the GI50 [23] was 1.01 µM. For the same compound, the TGI [23] was over 44 µM, the GI50 [24] was 0.462 µM and the TGI [24] was over 69.1 µM. The GI50 [25] was 0.7 µM, the TGI [25] was over 59.8 µM and the GI50 [26] was 0.0898 µM. It also gave a TGI [26] of 0.344 µM, a GI50 [27] of 0.377 µM and a TGI [27] of over 62.5 µM. For the same compound, the GI50 [28] was 4.07 µM, the TGI [28] was over 100 µM and the GI50 [29] was 0.547 µM. It also gave a TGI [29] of over 38.2 µM, a GI50 [30] of 0.71 µM and a TGI [30] of over 50.4 µM. For the same compound, the GI50 [31] was 1.21 µM, the TGI [31] was over 53 µM and the GI50 [32] was 0.983 µM. The TGI [32] was over 39.1 µM, the GI50 [33] was 0.934 µM and the TGI [33] was over 36.2 µM. The GI50 [34] was 0.791 µM, the TGI [34] was 41.9 µM and the GI50 [35] was 0.386 µM. The TGI [35] was over 52.3 µM, the GI50 [36] was 1.26 µM and the TGI [36] was over 100 µM. The GI50 [37] was 0.296 µM, the TGI [37] was 1.82 µM and the GI50 [38] was 1.29 µM. The TGI [38] was over 66.9 µM, the GI50 [39] was 4.92 µM and the TGI [39] was over 100 µM. The GI50 [40] was 7.05 µM, the TGI [40] was over 100 µM and the GI50 [41] was 0.131 µM. The TGI [41] was 7.11 µM, the GI50 [42] was 0.989 µM and the TGI [42] was over 39.9 µM. The GI50 [43] was 1.06 µM, the TGI [43] was over 88.3 µM and the GI50 [44] was 1.04 µM. For the same compound, the TGI [44] was over 47.4 µM, the GI50 [45] was 0.903 µM and the TGI [45] was over 45.5 µM. For the same compound, the GI50 [46] was 0.327 µM, the TGI [46] was over 100 µM and the GI50 [47] was 1.03 µM. It also gave a TGI [47] of over 100 µM, a GI50 [48] of 1.24 µM and a TGI [48] of over 39 µM. For the same compound, the GI50 [49] was under 0.0484 µM, the TGI [49] was 0.387 µM and the GI50 [50] was 1.07 µM. It also gave a TGI [50] of over 95.7 µM, a GI50 [51] of 8.83 µM and a TGI [51] of over 82.8 µM. For the same compound, the GI50 [52] was 35.2 µM, the TGI [52] was over 84.1 µM and the GI50 [53] was 2.31 µM. It also gave a TGI [53] of over 100 µM, a GI50 [54] of 0.27 µM and a TGI [54] of over 50.1 µM. For the same compound, the GI50 [55] was 1.4 µM, the TGI [55] was over 100 µM and the GI50 [56] was 1.61 µM. For the same compound, the TGI [56] was over 100 µM.
